Measurements published in US20230131192A1, “1H-PYRAZOLO[4,3-d]PYRIMIDINE COMPOUNDS AS TOLL-LIKE RECEPTOR 7 (TLR7) AGONISTS” (BRISTOL-MYERS SQUIBB COMPANY, priority 2020, published 2023).

How the values were obtained:
CD69 = assay: Induction of CD69 in human whole blood; type: cell-based; conditions: 17 hrs, CD69 surface staining, 100% set to 1 uM of resiquimod, average where assay was performed multiple times, read-out: hWB CD69 EC50
Protocol: The induction of Type I interferon (IFN) MX-1 genes and the B-cell activation marker CD69 are downstream events that occur upon activation of the TLR7 pathway. The following is a human whole blood assay that measures their induction in response to a TLR7 agonist.
Heparinized human whole blood was harvested from human subjects and treated with test TLR7 agonist compounds at 1 mM. The blood was diluted with RPMI 1640 media and Echo was used to predot 10 nL per well giving a final concentration of 1 uM (10 nL in 10 uL of blood). After mixing on a shaker for 30 sec, the plates were covered and placed in a 37° C. chamber for o/n=17 hrs. Fixing/lysis buffer was prepared (5×→1× in H2O, warm at 37° C.; Cat # BD 558049) and kept the perm buffer (on ice) for later use.
For surface markers staining (CD69): prepared surface Abs: 0.045 ul hCD14-FITC (ThermoFisher Cat # MHCD1401)+0.6 ul hCD19-ef450 (ThermoFisher Cat #48-0198-42)+1.5 ul hCD69-PE (cat # BD555531)+0.855 ul FACS buffer. Added 3 ul/well, spin1000 rpm for 1 min and mixed on shaker for 30 sec, put on ice for 30 mins. Stop stimulation after 30 minutes with 70 uL of prewarmed 1× fix/lysis buffer and use Feliex mate to resuspend (15 times, change tips for each plate) and incubate at 37 C for 10 minutes.
Centrifuge at 2000 rpm for 5 minutes aspirate with HCS plate washer, mix on shaker for 30 sec and then wash with 70 uL in dPBS and pelleted 2×s (2000 rpm for 5 min) and 50 ul wash in FACS buffer pelleted 1×s(2000 rpm for 5 min). Mix on shaker for 30 sec. For Intracellular markers staining (MX-1): Add 50 ul of BD Perm buffer III and mix on shaker for 30 sec. Incubate on ice for 30 minutes (in the dark). Wash with 50 uL of FACS buffer 2× (spin @2300 rpm×5 min after perm) followed by mixing on shaker for 30 sec. Resuspended in 20 ul of FACS buffer containing MX1 antibody ( )(4812)-Alexa 647: Novus Biologicals #NBP2-43704AF647) 20 ul FACS bf+0.8 ul hlgG+0.04 ul MX-1. Spin 1000 rpm for 1 min, mix on shaker for 30se and the samples were incubated at RT in the dark for 45 minutes followed by washing 2×FACS buffer (spin @2300 rpm×5 min after perm). Resuspend 20 ul (35 uL total per well) of FACS buffer and cover with foil and place in 4° C. to read the following day. Plates were read on iQuePlus. The results were loaded into toolset and […] curves are generated in curve master. The y-axis 100% is set to 1 uM of resiquimod.

human TLR7 = molecular target: T1, human TLR7 (Homo sapiens, UniProt Q9NYK1); assay: Human TLR7 agonist (reporter) activity assay, HEK-Blue TLR7 cells, SEAP reporter; type: cell-based; conditions: 18 h treatment, average where assay was performed multiple times, read-out: hTLR7 Agonism EC50
T1 construct: host or cells: HEK-Blue TLR7 cells (engineered human embryonic kidney cells)
T1 sequence (Q9NYK1 27-1049): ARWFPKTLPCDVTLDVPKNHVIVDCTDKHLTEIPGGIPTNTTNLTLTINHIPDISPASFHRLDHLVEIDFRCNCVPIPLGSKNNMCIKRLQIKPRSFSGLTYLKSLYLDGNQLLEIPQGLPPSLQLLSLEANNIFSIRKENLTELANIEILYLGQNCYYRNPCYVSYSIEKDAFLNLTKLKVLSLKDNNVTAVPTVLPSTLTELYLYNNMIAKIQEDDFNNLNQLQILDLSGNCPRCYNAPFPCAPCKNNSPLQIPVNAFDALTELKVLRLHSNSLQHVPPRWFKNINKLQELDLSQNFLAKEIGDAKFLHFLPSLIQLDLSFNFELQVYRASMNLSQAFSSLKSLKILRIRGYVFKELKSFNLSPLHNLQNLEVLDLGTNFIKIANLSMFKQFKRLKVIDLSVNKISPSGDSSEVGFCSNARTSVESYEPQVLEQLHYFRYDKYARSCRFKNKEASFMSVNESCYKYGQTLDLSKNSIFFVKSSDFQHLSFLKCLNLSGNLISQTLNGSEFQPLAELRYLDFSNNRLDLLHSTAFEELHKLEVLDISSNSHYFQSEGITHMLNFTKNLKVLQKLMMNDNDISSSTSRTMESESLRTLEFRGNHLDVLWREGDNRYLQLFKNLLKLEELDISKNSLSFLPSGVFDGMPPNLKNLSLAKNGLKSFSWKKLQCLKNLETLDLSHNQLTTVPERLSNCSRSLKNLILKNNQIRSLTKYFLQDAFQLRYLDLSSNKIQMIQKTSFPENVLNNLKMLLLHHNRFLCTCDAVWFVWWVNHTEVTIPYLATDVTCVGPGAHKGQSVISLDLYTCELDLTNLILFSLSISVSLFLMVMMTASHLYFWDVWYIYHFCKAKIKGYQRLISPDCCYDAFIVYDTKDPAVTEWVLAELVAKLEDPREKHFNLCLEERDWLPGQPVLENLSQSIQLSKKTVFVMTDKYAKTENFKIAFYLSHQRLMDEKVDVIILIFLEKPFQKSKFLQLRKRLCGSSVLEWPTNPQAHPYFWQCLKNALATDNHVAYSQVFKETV
Protocol: This procedure describes a method for assaying human TLR7 (hTLR7) agonist activity of the compounds disclosed in this specification.
HEK-Blue™ TLR7 cells were added to each well of a 384-well tissue-culture plate (15,000 cells per well) and incubated 16-18 h at 37° C., 5% CO2. Compounds (100 nl) were dispensed into wells containing the HEK-Blue™ TLR cells and the treated cells were incubated at 37° C., 5% CO2. After 18 h treatment ten microliters of freshly-prepared Quanti-Blue™ reagent (Invivogen) was added to each well, incubated for 30 min (37° C., 5% CO2) and SEAP levels measured using an Envision plate reader (OD=620 nm). The half maximal effective concentration values (EC50; compound concentration which induced a response halfway between the assay baseline and maximum) were calculated.

Row | Structure (SMILES) | EC50 (CD69) | EC50 (human TLR7)
1 | COc1cc(CN2CC(OC)C2)ccc1Cn1ncc2nc(N)nc(N[C@H](CO)CC3CC3)c21 [Compound 125, (2S)-2-{[5-amino-1-({2-methoxy-4-[(3-methoxyazetidin-1-yl)methyl]phenyl}methyl)-1H-pyrazolo[4,3-d]pyrimidin-7-yl]amino}-3-cyclopropylpropan-1-ol] | 15.2 nM | 138 nM
2 | COc1cc(CN2CCN(CCO)CC2)ccc1Cn1nc(C)c2nc(N)nc(NCC[C@H](O)C3CC3)c21 [Compound 126, (1S)-3-({5-amino-1-[(4-{[4-(2-hydroxyethyl)piperazin-1-yl]methyl}-2-methoxyphenyl)methyl]-3-methyl-1H-pyrazolo[4,3-d]pyrimidin-7-yl}amino)-1-cyclopropylpropan-1-ol] | 25.3 nM | 740 nM
3 | COc1cc(CNC2CCOCC2)ccc1Cn1ncc2nc(N)nc(NCc3noc(C4CC4)n3)c21 [Compound 127, N7-[(5-cyclopropyl-1,2,4-oxadiazol-3-yl)methyl]-1-[(2-methoxy-4-{[(oxan-4-yl)amino]methyl}phenyl)methyl]-1H-pyrazolo[4,3-d]pyrimidine-5,7-diamine] | 25.5 nM | 72.4 nM
4 | COc1cc(CN2CCN(CCO)CC2)ccc1Cn1ncc2nc(N)nc(NCc3noc(C4CC4)n3)c21 [Compound 128, 2-[4-({4-[(5-amino-7-{[(5-cyclopropyl-1,2,4-oxadiazol-3-yl)methyl]amino}-1H-pyrazolo[4,3-d]pyrimidin-1-yl)methyl]-3-methoxyphenyl}methyl)piperazin-1-yl]ethan-1-ol] | 7.5 nM | 33.7 nM
5 | COc1cc(CN2CCN(C)CC2)ccc1Cn1ncc2nc(N)nc(NCc3noc(C4CC4)n3)c21 [Compound 129, N7-[(5-cyclopropyl-1,2,4-oxadiazol-3-yl)methyl]-1-({2-methoxy-4-[(4-methylpiperazin-1-yl)methyl]phenyl}methyl)-1H-pyrazolo[4,3-d]pyrimidine-5,7-diamine] | 5.3 nM | 47.8 nM
6 | COc1cc(CNC2CCOCC2)cnc1Cn1ncc2nc(N)nc(NCc3noc(C)n3)c21 [Compound 130, 1-[(3-methoxy-5-{[(oxan-4-yl)amino]methyl}pyridin-2-yl)methyl]-N7-[(5-methyl-1,2,4-oxadiazol-3-yl)methyl]-1H-pyrazolo[4,3-d]pyrimidine-5,7-diamine] | 85 nM | 1350 nM
7 | COc1cc(CN2CCN(CCO)CC2)cnc1Cn1ncc2nc(N)nc(NCc3noc(C)n3)c21 [Compound 131, 2-[4-({6-[(5-amino-7-{[(5-methyl-1,2,4-oxadiazol-3-yl)methyl]amino}-1H-pyrazolo[4,3-d]pyrimidin-1-yl)methyl]-5-methoxypyridin-3-yl}methyl)piperazin-1-yl]ethan-1-ol] | 72.7 nM | 1000 nM
